Test [1] has as its target Mitogen-activated protein kinase 14 (Homo sapiens) (UniProt Q16539). Briefly: Enzymatic radiometric [Km ATP] KinaseProfiler LeadHunter assay, kinase: SAPK2a, catalogue number: 14-251KP The assay has been performed by Eurofins Discovery. The following applies: ATP concentration 90.0 uM, Test compound concentration 10.0 uM.
Test [2] has as its target Ribosomal protein S6 kinase alpha-1 (Homo sapiens) (UniProt Q15418). Briefly: Enzymatic radiometric [Km ATP] KinaseProfiler LeadHunter assay, kinase: Rsk1, catalogue number: 14-509KP The assay has been performed by Eurofins Discovery. As to conditions: ATP concentration 45.0 uM, Test compound concentration 10.0 uM.
The target of test [3] is Tyrosine-protein kinase JAK2 (Homo sapiens) (UniProt O60674). Briefly: Enzymatic radiometric [Km ATP] KinaseProfiler LeadHunter assay, kinase: JAK2, catalogue number: 14-640KP The assay has been performed by Eurofins Discovery. As to conditions: ATP concentration 45.0 uM, Test compound concentration 10.0 uM.
Sequence of Tyrosine-protein kinase JAK2 (Homo sapiens) (O60674 whole entry): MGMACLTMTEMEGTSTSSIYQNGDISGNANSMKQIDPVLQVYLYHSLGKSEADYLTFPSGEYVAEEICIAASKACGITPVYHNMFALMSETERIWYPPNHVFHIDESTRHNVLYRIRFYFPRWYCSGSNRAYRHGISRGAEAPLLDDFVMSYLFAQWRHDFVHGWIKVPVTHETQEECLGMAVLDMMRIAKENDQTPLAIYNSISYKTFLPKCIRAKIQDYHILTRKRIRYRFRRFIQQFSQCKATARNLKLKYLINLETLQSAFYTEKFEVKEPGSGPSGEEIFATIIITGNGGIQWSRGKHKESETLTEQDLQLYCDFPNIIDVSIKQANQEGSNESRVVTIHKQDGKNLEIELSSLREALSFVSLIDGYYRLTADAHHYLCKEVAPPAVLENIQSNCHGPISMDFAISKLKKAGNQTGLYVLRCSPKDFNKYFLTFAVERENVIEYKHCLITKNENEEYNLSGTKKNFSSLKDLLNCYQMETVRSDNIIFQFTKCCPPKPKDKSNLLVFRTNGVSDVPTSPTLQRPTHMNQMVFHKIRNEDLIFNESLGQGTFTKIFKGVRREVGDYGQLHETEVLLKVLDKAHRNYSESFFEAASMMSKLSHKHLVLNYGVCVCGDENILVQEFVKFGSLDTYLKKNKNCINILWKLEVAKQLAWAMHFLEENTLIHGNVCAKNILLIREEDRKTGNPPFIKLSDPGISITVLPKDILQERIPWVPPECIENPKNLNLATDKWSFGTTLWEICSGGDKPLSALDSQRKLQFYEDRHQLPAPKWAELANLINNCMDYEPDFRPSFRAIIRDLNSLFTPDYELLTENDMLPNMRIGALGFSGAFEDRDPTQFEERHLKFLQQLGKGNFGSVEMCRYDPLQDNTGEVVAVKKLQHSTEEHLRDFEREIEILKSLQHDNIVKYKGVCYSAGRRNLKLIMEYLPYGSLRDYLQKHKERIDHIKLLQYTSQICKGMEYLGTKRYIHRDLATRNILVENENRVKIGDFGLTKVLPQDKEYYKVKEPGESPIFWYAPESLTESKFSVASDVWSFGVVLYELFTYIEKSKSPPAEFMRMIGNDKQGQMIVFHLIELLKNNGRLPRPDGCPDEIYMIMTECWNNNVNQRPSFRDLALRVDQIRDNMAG
Test [4] deals with Cyclin-dependent kinase 1/cyclin B (Homo sapiens) (UniProt P06493+P14635+Q8WWL7+O95067). Briefly: Enzymatic radiometric [Km ATP] KinaseProfiler LeadHunter assay, kinase: CDK1/cyclinB, catalogue number: 14-450KP The assay has been performed by Eurofins Discovery. It counts as protein-complex assay. As to conditions: ATP concentration 45.0 uM, Test compound concentration 10.0 uM.

In test [5] the target is CDK9/cyclin T1 (Homo sapiens) (UniProt O60563+P50750). Briefly: Enzymatic radiometric [Km ATP] KinaseProfiler LeadHunter assay, kinase: CDK9/cyclin T1, catalogue number: 14-685KP The assay has been performed by Eurofins Discovery. It counts as protein-complex assay. As to conditions: ATP concentration 45.0 uM, Test compound concentration 10.0 uM.
Test [6] deals with SRSF protein kinase 1 (Homo sapiens) (UniProt Q96SB4). In words: Enzymatic radiometric [Km ATP] KinaseProfiler LeadHunter assay, kinase: SRPK1, catalogue number: 14-564KP The assay has been performed by Eurofins Discovery. As to conditions: ATP concentration 10.0 uM, Test compound concentration 10.0 uM.
Sequence of SRSF protein kinase 1 (Homo sapiens) (Q96SB4 whole entry): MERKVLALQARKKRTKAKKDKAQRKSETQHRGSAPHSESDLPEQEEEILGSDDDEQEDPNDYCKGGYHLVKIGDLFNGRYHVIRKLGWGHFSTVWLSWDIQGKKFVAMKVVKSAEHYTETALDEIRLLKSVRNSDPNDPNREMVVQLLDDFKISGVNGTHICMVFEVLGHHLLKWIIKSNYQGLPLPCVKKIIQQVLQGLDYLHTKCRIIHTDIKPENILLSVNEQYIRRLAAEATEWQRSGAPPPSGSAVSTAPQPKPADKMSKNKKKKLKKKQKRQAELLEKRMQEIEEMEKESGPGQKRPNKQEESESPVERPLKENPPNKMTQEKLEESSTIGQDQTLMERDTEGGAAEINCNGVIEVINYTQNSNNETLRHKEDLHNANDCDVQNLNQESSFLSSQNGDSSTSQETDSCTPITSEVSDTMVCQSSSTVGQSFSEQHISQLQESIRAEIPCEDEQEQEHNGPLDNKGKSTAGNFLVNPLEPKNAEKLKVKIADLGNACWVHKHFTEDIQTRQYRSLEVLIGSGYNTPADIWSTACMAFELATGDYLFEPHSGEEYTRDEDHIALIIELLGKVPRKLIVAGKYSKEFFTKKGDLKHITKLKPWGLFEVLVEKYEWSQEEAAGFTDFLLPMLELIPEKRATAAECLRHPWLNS
In test [7] the target is Tyrosine-protein kinase ABL1 (Homo sapiens) (UniProt P00519). In words: Enzymatic radiometric [Km ATP] KinaseProfiler LeadHunter assay, kinase: Abl, catalogue number: 14-529KP The assay has been performed by Eurofins Discovery. The following applies: ATP concentration 45.0 uM, Test compound concentration 10.0 uM.
Test [8] has as its target PI3-kinase p110-delta/p85-alpha (Homo sapiens) (UniProt P27986+O00329). Briefly: Enzymatic radiometric [Km ATP] KinaseProfiler LeadHunter assay, kinase: PI3 Kinase (p110-delta/p85-alpha), catalogue number: 14-604KP The assay has been performed by Eurofins Discovery. It is filed as protein-complex assay. As to conditions: ATP concentration 200.0 uM, Test compound concentration 10.0 uM.

The target in test [9] is Platelet-derived growth factor receptor beta (Homo sapiens) (UniProt P09619). Briefly: Enzymatic radiometric [Km ATP] KinaseProfiler LeadHunter assay, kinase: PDGFR-beta, catalogue number: 14-463KP The assay has been performed by Eurofins Discovery. As to conditions: ATP concentration 200.0 uM, Test compound concentration 10.0 uM.
Sequence of Platelet-derived growth factor receptor beta (Homo sapiens) (P09619 whole entry): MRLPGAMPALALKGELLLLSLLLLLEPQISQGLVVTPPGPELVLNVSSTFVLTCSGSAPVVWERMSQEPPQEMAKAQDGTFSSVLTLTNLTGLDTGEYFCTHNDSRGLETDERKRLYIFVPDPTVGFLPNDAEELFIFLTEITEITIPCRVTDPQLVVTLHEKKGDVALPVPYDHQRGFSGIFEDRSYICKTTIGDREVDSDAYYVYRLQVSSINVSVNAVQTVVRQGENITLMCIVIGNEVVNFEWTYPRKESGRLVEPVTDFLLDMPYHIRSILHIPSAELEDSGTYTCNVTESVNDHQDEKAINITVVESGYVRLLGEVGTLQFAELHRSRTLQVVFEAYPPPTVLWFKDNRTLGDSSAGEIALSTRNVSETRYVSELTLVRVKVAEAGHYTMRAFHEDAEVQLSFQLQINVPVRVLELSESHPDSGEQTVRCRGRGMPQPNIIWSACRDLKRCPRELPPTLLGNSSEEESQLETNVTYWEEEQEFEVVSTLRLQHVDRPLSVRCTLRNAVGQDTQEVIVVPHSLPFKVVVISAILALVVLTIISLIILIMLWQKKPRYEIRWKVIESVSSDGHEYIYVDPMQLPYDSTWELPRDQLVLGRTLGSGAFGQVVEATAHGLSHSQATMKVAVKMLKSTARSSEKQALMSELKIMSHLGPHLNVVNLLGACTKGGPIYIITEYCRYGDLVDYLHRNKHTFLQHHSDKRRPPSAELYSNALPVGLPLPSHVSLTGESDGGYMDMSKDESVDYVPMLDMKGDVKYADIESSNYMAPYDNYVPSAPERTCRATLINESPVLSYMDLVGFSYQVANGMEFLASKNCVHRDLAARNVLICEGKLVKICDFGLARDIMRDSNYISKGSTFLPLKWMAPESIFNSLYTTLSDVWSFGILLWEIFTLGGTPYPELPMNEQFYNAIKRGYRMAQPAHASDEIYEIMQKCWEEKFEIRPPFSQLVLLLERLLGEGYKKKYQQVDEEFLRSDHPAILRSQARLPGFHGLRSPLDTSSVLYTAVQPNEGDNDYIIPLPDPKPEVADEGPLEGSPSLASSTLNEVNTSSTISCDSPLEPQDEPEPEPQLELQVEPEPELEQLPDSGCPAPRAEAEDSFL
For test [10], the target named is cAMP-dependent protein kinase catalytic subunit alpha (Homo sapiens) (UniProt P17612). In words: Enzymatic radiometric [Km ATP] KinaseProfiler LeadHunter assay, kinase: PKA, catalogue number: 14-440KP The assay has been performed by Eurofins Discovery. As to conditions: ATP concentration 10.0 uM, Test compound concentration 10.0 uM.
For test [11], the target named is T1, Interleukin-1 receptor-associated kinase 4 (Homo sapiens) (UniProt Q9NWZ3).
T1 sequence (whole entry): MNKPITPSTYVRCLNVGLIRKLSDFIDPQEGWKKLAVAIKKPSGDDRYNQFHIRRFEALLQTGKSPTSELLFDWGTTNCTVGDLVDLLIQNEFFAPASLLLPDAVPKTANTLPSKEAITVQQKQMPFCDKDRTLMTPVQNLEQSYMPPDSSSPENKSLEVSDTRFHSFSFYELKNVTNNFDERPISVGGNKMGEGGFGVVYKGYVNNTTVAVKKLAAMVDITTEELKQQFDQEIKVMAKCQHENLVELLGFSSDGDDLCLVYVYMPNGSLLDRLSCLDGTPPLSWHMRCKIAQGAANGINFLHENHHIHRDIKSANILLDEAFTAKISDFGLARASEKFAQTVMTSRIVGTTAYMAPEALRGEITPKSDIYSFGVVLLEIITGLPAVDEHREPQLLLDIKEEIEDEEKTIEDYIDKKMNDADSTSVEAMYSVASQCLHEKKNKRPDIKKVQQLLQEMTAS
Briefly: Enzymatic radiometric [Km ATP] KinaseProfiler LeadHunter assay, kinase: IRAK4, catalogue number: 14-599KP The assay has been performed by Eurofins Discovery. As to conditions: ATP concentration 200.0 uM, Test compound concentration 10.0 uM.

For test [12], the target named is CDK7/Cyclin H/MNAT1 (Homo sapiens) (UniProt P51946+P50613+P51948). In words: Enzymatic radiometric [Km ATP] KinaseProfiler LeadHunter assay, kinase: CDK7/cyclinH/MAT1, catalogue number: 14-476KP The assay has been performed by Eurofins Discovery. It counts as protein-complex assay. As to conditions: ATP concentration 90.0 uM, Test compound concentration 10.0 uM.

Test [13] deals with MAP kinase-interacting serine/threonine-protein kinase 2 (Homo sapiens) (UniProt Q9HBH9). Briefly: Enzymatic radiometric [Km ATP] KinaseProfiler LeadHunter assay, kinase: Mnk2, catalogue number: 14-664KP The assay has been performed by Eurofins Discovery. The following applies: ATP concentration 120.0 uM, Test compound concentration 10.0 uM.
Sequence of MAP kinase-interacting serine/threonine-protein kinase 2 (Homo sapiens) (Q9HBH9 whole entry, looked up): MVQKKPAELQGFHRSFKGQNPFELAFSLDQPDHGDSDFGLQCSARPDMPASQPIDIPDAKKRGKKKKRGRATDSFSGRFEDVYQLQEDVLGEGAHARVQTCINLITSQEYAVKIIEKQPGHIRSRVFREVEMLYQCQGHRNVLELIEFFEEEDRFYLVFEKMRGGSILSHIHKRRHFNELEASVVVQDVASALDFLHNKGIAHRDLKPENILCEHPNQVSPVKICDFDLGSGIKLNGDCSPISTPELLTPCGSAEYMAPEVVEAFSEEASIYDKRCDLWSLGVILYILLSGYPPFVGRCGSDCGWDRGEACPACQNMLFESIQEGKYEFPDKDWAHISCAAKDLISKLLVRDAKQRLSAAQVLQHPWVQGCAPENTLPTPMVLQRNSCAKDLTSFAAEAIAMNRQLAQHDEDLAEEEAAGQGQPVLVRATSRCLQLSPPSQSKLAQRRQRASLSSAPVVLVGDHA

Where “and” joins values, the source holds several entries; their conditions need not be identical. Equal entries are not always repeated.

Sequence of Ribosomal protein S6 kinase alpha-1 (Homo sapiens) (Q15418 whole entry): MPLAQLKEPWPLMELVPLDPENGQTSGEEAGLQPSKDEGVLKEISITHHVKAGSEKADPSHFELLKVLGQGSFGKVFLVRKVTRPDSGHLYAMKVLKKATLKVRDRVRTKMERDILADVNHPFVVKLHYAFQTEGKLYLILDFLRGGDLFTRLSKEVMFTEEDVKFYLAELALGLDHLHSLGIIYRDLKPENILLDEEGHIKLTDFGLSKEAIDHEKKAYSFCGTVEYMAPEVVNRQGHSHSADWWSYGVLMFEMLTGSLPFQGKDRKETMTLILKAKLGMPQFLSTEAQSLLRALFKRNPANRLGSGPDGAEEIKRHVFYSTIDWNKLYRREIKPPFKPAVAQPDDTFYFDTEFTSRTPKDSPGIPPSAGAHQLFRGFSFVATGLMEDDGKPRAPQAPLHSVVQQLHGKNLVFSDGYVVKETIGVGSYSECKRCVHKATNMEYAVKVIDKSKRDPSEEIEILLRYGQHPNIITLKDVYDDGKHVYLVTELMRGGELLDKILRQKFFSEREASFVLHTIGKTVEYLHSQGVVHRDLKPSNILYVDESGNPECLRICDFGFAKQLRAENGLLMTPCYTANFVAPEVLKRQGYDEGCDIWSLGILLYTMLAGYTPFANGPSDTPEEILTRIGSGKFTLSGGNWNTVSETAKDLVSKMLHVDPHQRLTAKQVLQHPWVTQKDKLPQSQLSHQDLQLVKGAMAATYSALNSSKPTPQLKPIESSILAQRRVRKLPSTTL
Sequence of Mitogen-activated protein kinase 14 (Homo sapiens) (Q16539 whole entry): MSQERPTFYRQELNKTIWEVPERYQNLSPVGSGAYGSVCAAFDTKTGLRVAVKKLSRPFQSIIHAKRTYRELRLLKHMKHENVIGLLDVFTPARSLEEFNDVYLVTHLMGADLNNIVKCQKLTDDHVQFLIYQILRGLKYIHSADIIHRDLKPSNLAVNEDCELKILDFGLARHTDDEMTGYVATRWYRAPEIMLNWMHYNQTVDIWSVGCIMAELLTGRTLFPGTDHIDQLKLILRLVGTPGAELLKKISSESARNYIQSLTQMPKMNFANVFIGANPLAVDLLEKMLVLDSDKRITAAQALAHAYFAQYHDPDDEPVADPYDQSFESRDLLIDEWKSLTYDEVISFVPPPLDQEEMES

`CC(C)[C@H](Nc1ncnc2[nH]c(-c3cnn(C)c3C#N)cc12)c1ccc2c(n1)OCCO2`: the Activity in [1] was 99%; in test [2], 120%; in test [3], 115%; in test [4], 89%; in test [5], 79%; in test [6], 111%. In addition, the Activity in test [7] stood at 57%; in test [8], 66%; in [9], 92%; in test [10], 82%; in test [11] it was 106%; in test [12] it was 98%. This molecule returned an Activity in [13] of 95%.

In the case of `CC(C)[C@H](Nc1ncnc2[nH]ccc12)c1ccc2c(c1)S(=O)(=O)CCC2`, the Activity in [1] was found to be 107%; in test [2], 102%; in test [3], 99%; in test [4] it was 93%; in test [5], 112%; in test [6], 100%. Further, the Activity in test [7] turned out to be 105%; in test [8], 99%; in test [9], 89%; in [10], 89%; in test [11] it was 112%; in [12], 89%. Also, in [13], the Activity was 98%.

As to `COc1ccc([C@H](Cc2nnn[nH]2)NC(=O)c2ncnc3[nH]ccc23)cc1`, the Activity in [1] turned out to be 103%; in [2], 102%; in [3] it was 116%; in test [4] it was 98%; in test [5], 109%; in test [6], 103%. In addition, the Activity in test [7] came out at 102%; in test [8], 97%; in test [9], 103%; in test [10] it was 88%; in test [11], 109%; in test [12], 107%. In addition, the Activity in [13] came out at 115%.

Regarding `Cn1ncc(-c2cc3c(N[C@@H](c4ccc5c(n4)OCCO5)C(C)(C)C)ncnc3[nH]2)c1C#N`, the Activity is 106% in test [1]; 136% in [2]; 140% in [3]; 97% in test [4]; 130% in test [5]; 117% in test [6]. For the same molecule, the Activity was found to be 81% in test [7]; 73% in test [8]; 100% in test [9]; 95% in [10]; 132% in [11]; 108% in [12]. Besides, in [13], the Activity was found to be 100%.

As to `CC(C)[C@@H](Nc1ncnc2[nH]c(C(=O)N[C@@H]3CCN(C)C3)cc12)c1ccc2c(c1)S(=O)(=O)CCC2`, the Activity in [1] is 97%; in test [2], 94%; in test [3] it was 106%; in test [4], 103%; in test [5], 108%; in test [6], 108%. Besides, the Activity in test [7] was found to be 100%; in test [8] it was 99%; in [9], 83%; in [10] it was 89%; in [11], 105%; in test [12], 101%. Further, the Activity in [13] worked out at 99%.

Take `CNC(=O)Cn1cc(-c2cc3c(N[C@@H](c4ccc5c(c4)S(=O)(=O)CCC5)C(C)C)ncnc3[nH]2)cn1`: the Activity in test [1] is 103%; in [2], 94%; in test [3], 94%; in [4], 88%; in [5], 61%; in test [6], 94%. Also, the Activity in [7] is 72%; in [8], 87%; in test [9], 90%; in test [10] it was 99%; in test [11] it was 101%; in test [12], 95%. In test [13], this molecule gave an Activity of 94%.

On to `Cc1nn(C)cc1-c1cc2c(N[C@H](c3ccc4c(c3)S(=O)(=O)CCC4)C(C)C)ncnc2[nH]1`, for which the Activity in [1] was 98%; in test [2], 110%; in test [3] it was 111%; in test [4], 91%; in [5], 57%; in test [6] it was 104%. Also, the Activity worked out at 76% in test [7]; 101% in test [8]; 97% in [9]; 95% in test [10]; 107% in test [11]; 93% in test [12]. Further, the Activity in [13] came out at 99%.

Regarding `COc1ccc([C@@H](Cc2nnn[nH]2)NC(=O)c2ncnc3[nH]ccc23)cc1`, the Activity was 100% in [1]; 98% in test [2]; 102% in [3]; 108% in test [4]; 117% in test [5]; 102% in [6]. For the same molecule, the Activity came out at 98% in test [7]; 99% in test [8]; 102% in test [9]; 105% in test [10]; 91% in [11]; 91% in test [12]. Besides, the Activity in [13] is 84%.

As for `CNCc1cc(-c2cc3c(N[C@@H](c4ccc5c(c4)S(=O)(=O)CCC5)C(C)C)ncnc3[nH]2)co1`, the Activity in test [1] amounted to 97%; in test [2], 90%; in test [3], 114%; in test [4], 97%; in test [5], 40%; in [6], 101%. Further, the Activity in test [7] was determined as 51%; in test [8] it was 80%; in test [9], 89%; in test [10] it was 96%; in test [11], 100%; in [12], 100%. In [13], this molecule yielded an Activity of 94%.

In the case of `CC(C)[C@@H](Nc1ncnc2[nH]ccc12)c1ccc2c(c1)S(=O)(=O)CCC2`, the Activity in test [1] came out at 108%; in test [2] it was 92%; in test [3] it was 110%; in [4], 129%; in test [5] it was 114%; in [6], 105%. Also, the Activity in [7] turned out to be 93%; in test [8] it was 101%; in test [9], 99%; in [10] it was 98%; in test [11], 88%; in test [12] it was 85%. In test [13], this molecule came in with an Activity of 89%.

With `C[C@H](C(=O)O)[C@@H](NC(=O)c1ncnc2[nH]ccc12)c1ccc(Br)cc1`, the Activity stood at 103% in [1]; 88% in [2]; 99% in test [3]; 92% in [4]; 103% in test [5]; 97% in test [6]. The Activity is 97% in test [7]; 97% in [8]; 110% in test [9]; 87% in test [10]; 106% in test [11]; 99% in test [12]. This molecule yielded an Activity in test [13] of 110%.

For the molecule `CC(C)[C@@H](Nc1ncnc2[nH]c(-c3cnn(C)c3C#N)cc12)c1ccc2c(n1)OCCO2`, the Activity is 103% and 101% in [1]; 101% and 123% in test [3]; 95% and 88% in test [4]; 92% and 104% in [6]; 52% and 57% in test [7]; 55% and 61% in [8]. Further, the Activity was 108% and 93% in test [9]; 92% and 93% in test [10]; 100% and 99% in test [11]; 101% and 102% in test [12]; 77% and 83% in test [13].

The record behind these values is ChEMBL document CHEMBL5442741, “ASAP - In vitro kinase profile” (2024).
